Measurements: patent publication US11661409B1, “Acid addition salts, compositions, and methods of treating” (Pioneura Corporation, priority 2022, dated 2023)
“Also recorded” adds a separate entry of the source. Like-named read-outs stand apart in the source and are kept apart here. Blank lines part the entries; values can stand above or below the molecule they belong to.

Assays:
[1] = Solubility in methanol, ethanol, 95% ethanol; assay type: physicochemical
From the text: Dual solvent systems were used, comprising methanol and ether, by dissolving the salt in a small volume of methanol and then adjusting the solubility by adding ether to the point of slight cloudiness. These samples then remained in the reaction vessel as needed to precipitate.

[2] = mice; cited from earlier work
[3] = Pharmacokinetics of aqueous suspensions in mice; conditions: for Cmax: equimolar dose 10 mg/kg of free base, plasma Compound 1
Experimental: (§1) Blood was sampled with microbleeds frequently to produce the pharmacokinetics curves (AUCs).
(§2) The dosing suspension was analyzed before administration to the animals to ensure that the actual concentration was known.

[4] = Solubility and plasma levels of Compound 1 (general statements); assay type: physicochemical
From the text: There is a significant, unmet need for means to administer Compound 1 to treat diseases or disorders, such as diseases or disorders associated with neuroinflammation. The present disclosure fulfills these and other needs, as evident in reference to the following disclosure.
To improve solubility, attempts to prepare acid addition salts from suitably acidic carboxylic acids (e.g., fumaric acid, maleic acid, citric acid, tartaric acid), standard mineral acids (e.g., hydrobromic acid, sulfuric acid, phosphoric acid), and sulfonic acids (e.g., toluenesulfonic acid, methanesulfonic acid, ethanesulfonic acid, benzenesulfonic acid), were conducted.

[5] = mouse, in vivo, 10 mg/kg
Experimental: as §1, §2

[6] = Dissolution behaviour in water; assay type: physicochemical
Experimental: Pharmaceutically acceptable salts were prepared using tartaric acid, fumaric acid, and phosphoric acid.

[7] = mice, aqueous suspension, 10 mg/kg of free base, 10 mg/kg
[8] = mice, aqueous suspension, 10 mg/kg of free base

solubility in methanol, ethanol or 95% ethanol [1]: dissolved readily in hot methanol
Molecule: CN1CCN(Cc2ccc(-c3cnc4[nH]cc(-c5ccc6[nH]ccc6c5)c4c3)cc2)CC1 [Fumarate, 3-(1H-indol-5-yl)-5-[4-[(4-methyl-1-piperazinyl)methyl]phenyl]-1H-pyrrolo[2,3-b]pyridine]

Mean plasma concentration at 0.33 hr ([3]; mice, aqueous suspension, 10 mg/kg of free base, 0.33 hr, 10 mg/kg): LLQ
Mean plasma concentration at 1.0 hr [3, 7]: 1.91 ng/mL
Mean plasma concentration at 1.5 hr [3, 7]: 10.0 ng/mL
concentration at 0.67 h ([3]; mouse, plasma, oral, 10 mg/kg, Mean plasma concentration at 0.67 hr, mice, aqueous suspension, 10 mg/kg of free base, 0.67 hr): 1.46 ng/mL
concentration at 2 h ([3]; mouse, plasma, oral, 10 mg/kg, Mean plasma concentration at 2.0 hr, mice, aqueous suspension, 10 mg/kg of free base, 2.0 hr): 20.4 ng/mL
concentration at 4 h ([3]; mouse, plasma, oral, 10 mg/kg, Mean plasma concentration at 4.0 hr, mice, aqueous suspension, 10 mg/kg of free base, 4.0 hr): 46.9 ng/mL
Tmax ([3]; mouse, plasma, po, 10 mg/kg): 6 h
AUC(0-t) ([3]; mouse, plasma, po, 10 mg/kg, AUClast, mice, aqueous suspension, 10 mg/kg of free base, 6-hour study): 181 ng·h/mL
Cmax ([3]; mouse, plasma, po, 10 mg/kg, Cmax, mice, aqueous suspension): 56.3 ng/mL
plasma serum levels upon administration without excipients such as DMSO [4]: only low plasma serum levels
Molecule: CN1CCN(Cc2ccc(-c3cnc4[nH]cc(-c5ccc6[nH]ccc6c5)c4c3)cc2)CC1 [Compound 1, 3-(1H-indol-5-yl)-5-[4-[(4-methyl-1-piperazinyl)methyl]phenyl]-1H-pyrrolo[2,3-b]pyridine]
pharmacokinetic properties and CNS penetration [2]: excellent pharmacokinetic properties and central nervous system (CNS) penetration
solubility in methanol, ethanol or 95% ethanol ([1]; listed as free base): not very soluble in methanol, ethanol, or 95% ethanol at room temperature
solubility in water / aqueous and organic carriers [4]: insoluble in water; also recorded: limited solubility in typical aqueous and organic carriers

AUClast [5]: 259 ng·h/mL
Cmax [5]: 66.9 ng/mL
Mean plasma concentration at 0.33 hr [5]: 4.24 ng/mL
Mean plasma concentration at 0.67 hr [5]: 8.2 ng/mL
Mean plasma concentration at 1.0 hr [5]: 15.2 ng/mL
Mean plasma concentration at 1.5 hr [5]: 31.4 ng/mL
Mean plasma concentration at 2.0 hr [5]: 38.8 ng/mL
Mean plasma concentration at 4.0 hr [5]: 63.4 ng/mL
Tmax [5]: 4.67 h
kinetic dissolution in water [6]: fastest to kinetically dissolve
Molecule: tartrate salt of 3-(1H-indol-5-yl)-5-[4-[(4-methyl-1-piperazinyl)methyl]phenyl]-1H-pyrrolo[2,3-b]pyridine

solubility in methanol, ethanol or 95% ethanol ([1]; listed as Phosphoric Acid): low in methanol
Tmax [3, 8]: 6.00 h
AUClast ([3]; mice, aqueous suspension, 10 mg/kg of free base, 6-hour study, 10 mg/kg): 230 ng·h/mL
Mean plasma concentration at 0.67 hr ([3]; mice, aqueous suspension, 10 mg/kg of free base, 0.67 hr, 10 mg/kg): 2.71 ng/mL
Mean plasma concentration at 1.0 hr [3, 7]: 7.32 ng/mL
Mean plasma concentration at 1.5 hr [3, 7]: 21.9 ng/mL
Mean plasma concentration at 2.0 hr ([3]; mice, aqueous suspension, 10 mg/kg of free base, 2.0 hr, 10 mg/kg): 31.7 ng/mL
Mean plasma concentration at 4.0 hr ([3]; mice, aqueous suspension, 10 mg/kg of free base, 4.0 hr, 10 mg/kg): 48.3 ng/mL
Cmax ([3]; mice, aqueous suspension, 10 mg/kg): 78 ng/mL
concentration at 0.33 h ([3]; mouse, plasma, oral, 10 mg/kg, Mean plasma concentration at 0.33 hr, mice, aqueous suspension, 10 mg/kg of free base, 0.33 hr): 0.679 ng/mL
Molecule: CN1CCN(Cc2ccc(-c3cnc4[nH]cc(-c5ccc6[nH]ccc6c5)c4c3)cc2)CC1 [Phosphate, 3-(1H-indol-5-yl)-5-[4-[(4-methyl-1-piperazinyl)methyl]phenyl]-1H-pyrrolo[2,3-b]pyridine]
solubility in methanol, ethanol or 95% ethanol [1]: least soluble in methanol of the three salts tested
exposure compared with free base [3, 8]: superior to the free base in key pharmacokinetic measures
